Measured values reported in PubChem BioAssay AID2060484 (Molecular Pharmacology Branch, DTP, NCI, 2025).
pIC50: −log10 of the molar value.

Test system: SUM149PT spheroids with HUVEC/MSC, viability
Assay: Anticancer human tumor SUM149PT cell line growth inhibition [GQUAD];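 also: spheroids exposed to drugs for seven days before readout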;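 as to viability, T/C: percent viability relative to DMSO vehicle control taken as 100%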
Settings: for pIC50: curve of first compound; for viability, T/C: stronger effect = lower value
Summary of the method: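 Viability of tumor cells grown as complex spheroids with endothelial and stromal cells, exposed to drug combinations. Top concentration at or near clinical Cmax (else 10 microM), diluted in half-log increments.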

[1] = second compound 0.0316 µM, first compound 0.0316 µM
[2] = second compound 0.0316 µM, first compound 0.1 µM
[3] = second compound 0.0316 µM, first compound 0.316 µM
[4] = second compound 0.0316 µM, first compound 1 µM
[5] = second compound 0.0316 µM, first compound 3.16 µM
[6] = second compound 0.0316 µM, first compound 10 µM
[7] = second compound 0.1 µM, first compound 0.0316 µM
[8] = second compound 0.1 µM, first compound 0.1 µM
[9] = second compound 0.1 µM, first compound 0.316 µM
[10] = second compound 0.1 µM, first compound 1 µM
[11] = second compound 0.1 µM, first compound 3.16 µM
[12] = second compound 0.1 µM, first compound 10 µM
[13] = second compound 0.316 µM, first compound 0.0316 µM
[14] = second compound 0.316 µM, first compound 0.1 µM
[15] = second compound 0.316 µM, first compound 0.316 µM
[16] = second compound 0.316 µM, first compound 1 µM
[17] = second compound 0.316 µM, first compound 3.16 µM
[18] = second compound 0.316 µM, first compound 10 µM
[19] = second compound 1 µM, first compound 0.0316 µM
[20] = second compound 1 µM, first compound 0.1 µM
[21] = second compound 1 µM, first compound 0.316 µM
[22] = second compound 1 µM, first compound 1 µM
[23] = second compound 1 µM, first compound 3.16 µM
[24] = second compound 1 µM, first compound 10 µM
[25] = second compound 3.16 µM, first compound 0.0316 µM
[26] = second compound 3.16 µM, first compound 0.1 µM
[27] = second compound 3.16 µM, first compound 0.316 µM
[28] = second compound 3.16 µM, first compound 1 µM
[29] = second compound 3.16 µM, first compound 3.16 µM
[30] = second compound 3.16 µM, first compound 10 µM
[31] = second compound 10 µM, first compound 0.0316 µM
[32] = second compound 10 µM, first compound 0.1 µM
[33] = second compound 10 µM, first compound 0.316 µM
[34] = second compound 10 µM, first compound 1 µM
[35] = second compound 10 µM, first compound 3.16 µM
[36] = second compound 10 µM, first compound 10 µM

SMILES: O=C(c1cc(Cc2n[nH]c(=O)c3ccccc23)ccc1F)N1CCN(C(=O)C2CC2)CC1 + Cc1cnc(CNC(=O)c2c(=O)c3ccc(N4CCCN(C)CC4)nc3n3c2sc2ccccc23)cn1
- pIC50 (second compound 0.0316 µM): 5.00
- pIC50 (second compound 0.1 µM): < 5.00
- pIC50 (second compound 0.316 µM): 5.30
- pIC50 (second compound 1 µM): > 7.50
- pIC50 (second compound 3.16 µM): > 7.50
- pIC50 (second compound 10 µM): > 7.50
- viability, T/C [1]: 87.6%
- viability, T/C [2]: 72.1%
- viability, T/C [3]: 83.3%
- viability, T/C [4]: 88.3%
- viability, T/C [5]: 80.2%
- viability, T/C [6]: 50%
- viability, T/C [7]: 63.6%
- viability, T/C [8]: 70.1%
- viability, T/C [9]: 65.8%
- viability, T/C [10]: 66.4%
- viability, T/C [11]: 61.4%
- viability, T/C [12]: 44.5%
- viability, T/C [13]: 53.2%
- viability, T/C [14]: 58.5%
- viability, T/C [15]: 55.4%
- viability, T/C [16]: 54.5%
- viability, T/C [17]: 53.6%
- viability, T/C [18]: 44%
- viability, T/C [19]: 43%
- viability, T/C [20]: 47%
- viability, T/C [21]: 47.1%
- viability, T/C [22]: 48.4%
- viability, T/C [23]: 48.5%
- viability, T/C [24]: 42.7%
- viability, T/C [25]: 35.4%
- viability, T/C [26]: 42.2%
- viability, T/C [27]: 40.3%
- viability, T/C [28]: 38.7%
- viability, T/C [29]: 39.5%
- viability, T/C [30]: 37.6%
- viability, T/C [31]: 10.2%
- viability, T/C [32]: 12.1%
- viability, T/C [33]: 27.6%
- viability, T/C [34]: 30.5%
- viability, T/C [35]: 22.6%
- viability, T/C [36]: 2.16%

SMILES: Nc1ccn(C2OC(CO)C(O)C2(F)F)c(=O)n1 (stereo not drawn) + Cc1[nH]c2ccc(F)cc2c1-c1nc2c3cccnc3c3ncccc3c2[nH]1
- pIC50 (second compound 0.0316 µM): 7.12
- pIC50 (second compound 0.1 µM): 7.08
- pIC50 (second compound 0.316 µM): 7.19
- pIC50 (second compound 1 µM): 7.12
- pIC50 (second compound 3.16 µM): 7.16
- pIC50 (second compound 10 µM): 7.27
- viability, T/C [1]: 82.8%
- viability, T/C [2]: 39.7%
- viability, T/C [3]: 22.1%
- viability, T/C [4]: 20.7%
- viability, T/C [5]: 17%
- viability, T/C [6]: 14.1%
- viability, T/C [7]: 69%
- viability, T/C [8]: 46.4%
- viability, T/C [9]: 19%
- viability, T/C [10]: 17.5%
- viability, T/C [11]: 16%
- viability, T/C [12]: 13.9%
- viability, T/C [13]: 70.4%
- viability, T/C [14]: 37.5%
- viability, T/C [15]: 21.6%
- viability, T/C [16]: 18.7%
- viability, T/C [17]: 17.5%
- viability, T/C [18]: 12%
- viability, T/C [19]: 77.1%
- viability, T/C [20]: 41.1%
- viability, T/C [21]: 24.7%
- viability, T/C [22]: 21%
- viability, T/C [23]: 17.1%
- viability, T/C [24]: 12.1%
- viability, T/C [25]: 75.8%
- viability, T/C [26]: 37.5%
- viability, T/C [27]: 20.8%
- viability, T/C [28]: 18.7%
- viability, T/C [29]: 15.3%
- viability, T/C [30]: 12%
- viability, T/C [31]: 62.8%
- viability, T/C [32]: 35.3%
- viability, T/C [33]: 19.9%
- viability, T/C [34]: 22.1%
- viability, T/C [35]: 15.6%
- viability, T/C [36]: 11.6%

SMILES: CCCS(=O)(=O)Nc1ccc(F)c(C(=O)c2c[nH]c3ncc(-c4ccc(Cl)cc4)cc23)c1F + Cc1cnc(CNC(=O)c2c(=O)c3ccc(N4CCCN(C)CC4)nc3n3c2sc2ccccc23)cn1
- pIC50 (second compound 0.0316 µM): 5.23
- pIC50 (second compound 0.1 µM): 5.51
- pIC50 (second compound 0.316 µM): 5.84
- pIC50 (second compound 1 µM): > 7.50
- pIC50 (second compound 3.16 µM): > 7.50
- pIC50 (second compound 10 µM): > 7.50
- viability, T/C [1]: 80%
- viability, T/C [2]: 76.5%
- viability, T/C [3]: 96.1%
- viability, T/C [4]: 88.6%
- viability, T/C [5]: 67.5%
- viability, T/C [6]: 34.9%
- viability, T/C [7]: 67.8%
- viability, T/C [8]: 68.3%
- viability, T/C [9]: 79.3%
- viability, T/C [10]: 66.5%
- viability, T/C [11]: 50%
- viability, T/C [12]: 33.2%
- viability, T/C [13]: 51.9%
- viability, T/C [14]: 57.5%
- viability, T/C [15]: 56.5%
- viability, T/C [16]: 52.9%
- viability, T/C [17]: 43.2%
- viability, T/C [18]: 31%
- viability, T/C [19]: 51.5%
- viability, T/C [20]: 46%
- viability, T/C [21]: 44.6%
- viability, T/C [22]: 46.6%
- viability, T/C [23]: 37.7%
- viability, T/C [24]: 25.4%
- viability, T/C [25]: 37.5%
- viability, T/C [26]: 38%
- viability, T/C [27]: 43.1%
- viability, T/C [28]: 38%
- viability, T/C [29]: 37%
- viability, T/C [30]: 23.4%
- viability, T/C [31]: 0.2%
- viability, T/C [32]: 11.8%
- viability, T/C [33]: 0.67%
- viability, T/C [34]: 11.7%
- viability, T/C [35]: 2.28%
- viability, T/C [36]: 2.88%

SMILES: COc1ncnc(C2CC2)c1-c1ncc2cnn(Cc3ccc(-c4nc(C(F)(F)F)cn4C(C)C)cc3)c2n1 + CN(C)c1ccc(Nc2c3ccc(NC(=O)CCN4CCCC4)cc3nc3cc(NC(=O)CCN4CCCC4)ccc23)cc1
- pIC50 (second compound 0.0316 µM): < 5.00
- pIC50 (second compound 0.1 µM): < 5.00
- pIC50 (second compound 0.316 µM): < 5.00
- pIC50 (second compound 1 µM): < 5.00
- pIC50 (second compound 3.16 µM): < 5.00
- pIC50 (second compound 10 µM): 5.06
- viability, T/C [1]: 101%
- viability, T/C [2]: 91.8%
- viability, T/C [3]: 84.1%
- viability, T/C [4]: 97.1%
- viability, T/C [5]: 89.8%
- viability, T/C [6]: 98.6%
- viability, T/C [7]: 94.8%
- viability, T/C [8]: 83.2%
- viability, T/C [9]: 88.7%
- viability, T/C [10]: 80.2%
- viability, T/C [11]: 93.4%
- viability, T/C [12]: 90.5%
- viability, T/C [13]: 90.5%
- viability, T/C [14]: 90.5%
- viability, T/C [15]: 75.7%
- viability, T/C [16]: 74.1%
- viability, T/C [17]: 88%
- viability, T/C [18]: 89.1%
- viability, T/C [19]: 79%
- viability, T/C [20]: 88.3%
- viability, T/C [21]: 83.5%
- viability, T/C [22]: 67.9%
- viability, T/C [23]: 64.2%
- viability, T/C [24]: 75.5%
- viability, T/C [25]: 82.6%
- viability, T/C [26]: 77.8%
- viability, T/C [27]: 65.1%
- viability, T/C [28]: 74.1%
- viability, T/C [29]: 72.1%
- viability, T/C [30]: 66.9%
- viability, T/C [31]: 84.1%
- viability, T/C [32]: 69%
- viability, T/C [33]: 70.5%
- viability, T/C [34]: 71.8%
- viability, T/C [35]: 71.8%
- viability, T/C [36]: 46.9%
